The target in one assay is endogenous CGRP receptor (Homo sapiens, UniProt O60894+Q16602). The assay can be described thus: CGRP functional antagonism using SK-N-MC-BLA (4C10), β-lactamase transcriptional reporter assay. Type of assay: cell-based. Particulars: SK-N-MC (4C10) cells, inhibition of β-lactamase expression in the presence of 200 pM CGRP.
For assay [1], the target named is T1, CGRP receptor (SK-N-MC membrane) (Homo sapiens, UniProt O60894+Q16602).
T1 construct: Purified SK-N-MC membrane was purchased from Perkin Elmer; purchased Perkin Elmer; host or cells: SK-N-MC membrane
Kind of assay: I125-CGRP binding displacement assay on purified SK-N-MC membrane. As to the method:
Purified SK-N-MC membrane was purchased from Perkin Elmer. The membrane was thawed quickly and placed on ice. The compounds were diluted with CGRP binding solution (25 mM Tris-HCl, pH7.4, 5 mM MgCl2, 0.1% BSA and 0.05% Tween). The membrane was diluted 1:20 with the binding solution and homogenized with Tissue Matster-50 Homogenizer (Omni International) for 30 sec. The homogenized membrane was added to compounds in the binding solution. […] After 2 hour incubation at room temperature, the reaction was stopped by rapid filtration through 0.5% PEI treated GF/C filter plate (Perkin Elmer) and the filter plate was washed with ice-cold washing solution (50 mM Tris HCl, pH7.4, 5 mM MgCl2 and 0.1% BSA) using cell harvestor (Tomtec). The radioactivity of the filter plates were read on Topcount (Packard). The nonspecific binding was determined in the control reaction where 1 uM unlabelled CGRP was preincubated with the membrane prior to I125-CGRP addition. The total binding was determined in the control reaction of the membrane and I125-CGRP in the absence of compound. The percent displacement of I125-CGRP with compounds was calculated using nonspecific and total binding controls. The curve fitting was carried out using MOD3.

The term IC50 denotes the concentration needed to halve the response being measured. A word on the Ki: it is the dissociation constant of the complex between target and ligand, obtained from inhibition or displacement. Lower therefore signals higher affinity.

Chain of endogenous CGRP receptor (Q16602 23-461): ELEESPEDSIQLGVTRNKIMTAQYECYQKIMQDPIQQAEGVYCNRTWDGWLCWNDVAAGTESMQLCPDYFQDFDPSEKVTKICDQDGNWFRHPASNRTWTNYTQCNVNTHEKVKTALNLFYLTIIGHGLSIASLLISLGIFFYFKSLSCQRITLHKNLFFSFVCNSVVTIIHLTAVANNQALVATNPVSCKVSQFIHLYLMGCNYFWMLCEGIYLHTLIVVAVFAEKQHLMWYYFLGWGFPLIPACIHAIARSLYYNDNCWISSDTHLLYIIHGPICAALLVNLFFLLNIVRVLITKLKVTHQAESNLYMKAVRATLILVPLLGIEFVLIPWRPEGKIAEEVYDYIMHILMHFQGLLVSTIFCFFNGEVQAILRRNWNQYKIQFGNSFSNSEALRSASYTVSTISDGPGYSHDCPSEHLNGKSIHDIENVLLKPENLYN
Chain of endogenous CGRP receptor (O60894 27-148): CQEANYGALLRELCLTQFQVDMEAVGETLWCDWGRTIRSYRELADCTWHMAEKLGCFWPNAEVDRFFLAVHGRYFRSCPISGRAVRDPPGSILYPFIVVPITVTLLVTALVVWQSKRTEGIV
T1 sequence (Q16602 23-461): as the sequence (Q16602 23-461) above
T1 sequence (O60894 27-148): as the sequence (O60894 27-148) above

`CC(C)(C)CCN1C(=O)[C@H](CC(=O)N2CCC(N3CCc4ccccc4NC3=O)CC2)SC1c1cccc(F)c1N1CCC(F)(F)C1` (stereo partly shown) [Compound 483]: on endogenous CGRP receptor, the IC50 was > 5 µM. The Ki in assay [1] is < 1 µM.
The matching figures for `O=C(CC1SC(c2ccccc2)N(CCc2ccccc2)C1=O)N1CCC(N2Cc3ccccc3NC2=O)CC1` (stereo not shown) [Compound 58]: < 1 µM and < 1 µM.
The matching figures for `CN1CCN(c2ccc(F)cc2C2SC(CC(=O)N3CCC(n4c(=O)[nH]c5ncccc54)CC3)C(=O)N2CCC(C)(C)C)CC1` (stereo not shown) [Compound 353]: < 1 µM and < 1 µM.
The matching figures for `CC(C)OCCN1C(=O)[C@H](CC(=O)N2CCC(n3c(=O)[nH]c4ncccc43)CC2)SC1c1cccc(F)c1N1CCN(C(C)(C)C)CC1` (stereo partly shown) [Compound 530]: < 1 µM and < 1 µM.
In the case of `CN1CCN(c2ccccc2[C@@H]2S[C@](C)(CC(=O)N3CCC(N4CCc5ccccc5NC4=O)CC3)C(=O)N2CCC(C)(C)C)CC1` [Compound 375], at endogenous CGRP receptor, the IC50 was < 1 µM. Further, the Ki in assay [1] was < 1 µM.
Consider `CC(C)CCN1C(=O)C(CC(=O)N2CCC(N3Cc4ccccc4NC3=O)CC2)S(=O)(=O)C1c1ccccc1` (stereo not shown) [Compound 122], for which the IC50 on endogenous CGRP receptor is > 5 µM. The Ki in assay [1] was < 1 µM.
For `Cc1cc(C2SC(CC(=O)N3CCC(n4cc(-c5ccccc5)[nH]c4=O)CC3)C(=O)N2CCC(C)C)cc2cn[nH]c12` (stereo not shown) [Compound 248], the IC50 on endogenous CGRP receptor is < 1 µM. In addition, the Ki in assay [1] was > 5 µM.
In the case of `CC(C)CN1C(=O)[C@H](CC(=O)N2CCC(N3CCc4ccccc4NC3=O)CC2)SC1c1cccc(F)c1N1CCN(C(C)(C)C)CC1` (stereo partly shown) [Compound 493], at endogenous CGRP receptor, the IC50 was < 1 µM. The Ki in assay [1] is < 1 µM.
Consider `CC(C)(C)N1CCN(c2c(F)cccc2[C@@H]2S[C@@H](CC(=O)N3CCC(N4CCc5ccccc5NC4=O)CC3)C(=O)N2CC2CCOCC2)CC1` [Compound 524], for which the IC50 on endogenous CGRP receptor is < 1 µM. Besides, the Ki in assay [1] is < 1 µM.
Turning to `O=C(CC1SC(c2ccccc2)N(CC(F)(F)F)C1=O)N1CCC(N2Cc3ccccc3NC2=O)CC1` (stereo not shown) [Compound 109], on endogenous CGRP receptor, the IC50 was 1 to 5 µM. In addition, the Ki in assay [1] is < 1 µM.
On the same counts, the results for `O=C(CC1SC(c2ccccc2)N(CC2CCCO2)C1=O)N1CCC(N2Cc3ccccc3NC2=O)CC1` (stereo not shown) [Compound 113] are < 1 µM and < 1 µM.
As for `CC(C)CCN1C(=O)C(CC(=O)N2CCC(N3CCc4ccccc4NC3=O)CC2)SC1c1ccccc1N1CCOCC1` (stereo not shown) [Compound 10], the IC50 on endogenous CGRP receptor is < 1 µM. Besides, in assay [1], the Ki was < 1 µM.
Turning to `CN(C)[C@H]1CCN(c2ccccc2C2SC(CC(=O)N3CCC(N4CCc5ccccc5NC4=O)CC3)C(=O)N2CCC(C)(C)C)C1` (stereo partly shown) [Compound 407], the IC50 on endogenous CGRP receptor was < 1 µM. Further, the Ki in assay [1] was < 1 µM.
As to `CC(C)(C)CCN1C(=O)[C@H](CC(=O)N2CCC(N3CCc4ccccc4NC3=O)CC2)S[C@@H]1c1cccc(F)c1C1CCNCC1` [Compound 552, 3-(1-(2-((2R,5S)-2-(3-fluoro-2-(piperidin-4-yl)phenyl)-3-(3,3-dimethylbutyl)-4-oxothiazolidin-5-yl)acetyl)piperidin-4-yl)-4,5-dihydro-1H-benzo[d][1,3]diazepin-2(3H)-one], the IC50 on endogenous CGRP receptor is < 1 µM. In addition, in assay [1], the Ki is < 1 µM.
On to `CC(C)(C)CCN1C(=O)[C@H](CC(=O)N2CCC(n3c(=O)[nH]c4ncccc43)CC2)SC1c1cccc(F)c1N1CCC(O)C1` (stereo partly shown) [Compound 484], for which, at endogenous CGRP receptor, the IC50 was < 1 µM. Besides, the Ki in assay [1] is < 1 µM.
Regarding `CC(C)(C)CCN1C(=O)[C@H](CC(=O)N2CCC(N3CCc4ccccc4NC3=O)CC2)SC1c1ccn(C2CCNCC2)n1` (stereo partly shown) [Compound 491], on endogenous CGRP receptor, the IC50 is < 1 µM. Moreover, the Ki in assay [1] was < 1 µM.
`CC(C)CCN1C(=O)C(CC(=O)N2CCC3(CC2)CC(=O)c2ccccc2O3)SC1c1ccccc1N1CCN(C)CC1` (stereo not shown) [Compound 331]: the half-maximal inhibitory concentration (IC50) on endogenous CGRP receptor was < 1 µM. Moreover, in assay [1], the Ki was < 1 µM.
Take `CN(C)CCNc1c(F)cccc1C1S[C@@H](CC(=O)N2CCC(N3CCc4ccccc4NC3=O)CC2)C(=O)N1CCC(C)(C)C` (stereo partly drawn) [Compound 513, 3-(1-(2-((5S)-2-(2-(2-(Dimethylamino)ethylamino)-3-fluorophenyl)-3-(3,3-dimethylbutyl)-4-oxothiazolidin-5-yl)acetyl)piperidin-4-yl)-4,5-dihydro-1H-benzo[d][1,3]diazepin-2(3H)-one]: the IC50 at endogenous CGRP receptor is < 1 µM. In assay [1], the Ki is < 1 µM.
Regarding `CC(C)(C)CCN1C(=O)[C@H](CC(=O)N2CCC(N3CCc4ccccc4NC3=O)CC2)SC1c1ccn(C2CCN(C(=O)OC(C)(C)C)CC2)n1` (stereo partly shown) [Compound 490], the IC50 at endogenous CGRP receptor is > 5 µM. In addition, the Ki in assay [1] is < 1 µM.
On the same counts, the results for `CN1CCN(c2cc(F)ccc2C2SC(CC(=O)N3CCC(n4cc(-c5ccccc5)[nH]c4=O)CC3)C(=O)N2CCC(C)(C)C)CC1` (stereo not shown) [Compound 363] are < 1 µM and < 1 µM.
As to `CC(C)CCN1C(=O)C(CC(=O)N2CCC(N3Cc4ccccc4NC3=O)CC2)SC1c1ccc(C#N)cc1` (stereo not shown) [Compound 63], the IC50 at endogenous CGRP receptor is < 1 µM. Moreover, the Ki in assay [1] was < 1 µM.
Regarding `CC(C)(C)CCN1C(=O)[C@H](CC(=O)N2CCC(N3CCc4ccccc4NC3=O)CC2)S[C@H]1c1cccc(F)c1C1CCNCC1` [Compound 553, 3-(1-(2-((2S,5S)-2-(3-fluoro-2-(piperidin-4-yl)phenyl)-3-(3,3-dimethylbutyl)-4-oxothiazolidin-5-yl)acetyl)piperidin-4-yl)-4,5-dihydro-1H-benzo[d][1,3]diazepin-2(3H)-one], the IC50 at endogenous CGRP receptor lay in the range of 1 to 5 µM. For the same molecule, the inhibition constant (Ki) in assay [1] is < 1 µM.
On the same counts, the results for `CN1CCN(c2ccccc2C2N(CCC(C)(C)C)C(=O)C(CC(=O)N3CCC(N4Cc5ccccc5NC4=O)CC3)[S+]2[O-])CC1` (stereo not shown) [Compound 307] are < 1 µM and < 1 µM.
The matching figures for `CN1CCN(c2ccccc2C2SC(CC(=O)N3CC(N4Cc5ccccc5NC4=O)C3)C(=O)N2CCC(C)(C)C)CC1` (stereo not shown) [Compound 477]: > 5 µM and < 1 µM.
`CN(C)CCNc1c(F)cccc1C1S[C@@H](CC(=O)N2CCC(n3c(=O)[nH]c4ncccc43)CC2)C(=O)N1CCC(C)(C)C` (stereo partly drawn) [Compound 518, 1-(1-(2-((5S)-2-(2-(2-(Dimethylamino)ethylamino)-3-fluorophenyl)-3-(3,3-dimethylbutyl)-4-oxothiazolidin-5-yl)acetyl)piperidin-4-yl)-1H-imidazo[4,5-b]pyridin-2(3H)-one]: at endogenous CGRP receptor, the IC50 was < 1 µM. Besides, in assay [1], the Ki is < 1 µM.
Turning to `CC(C)(C)CCN1C(=O)[C@H](CC(=O)N2CCC(n3c(=O)[nH]c4ncccc43)CC2)SC1c1cccc(F)c1N1CCN(C(=O)OC(C)(C)C)CC1` (stereo partly shown) [Compound 549], the IC50 on endogenous CGRP receptor was in the range of 1 to 5 µM. For the same molecule, in assay [1], the Ki is < 1 µM.
On the same counts, the results for `CC(C)(C)CCN1C(=O)[C@H](CC(=O)N2CCC(N3Cc4ccccc4NC3=O)CC2)S[C@H]1c1cccc(F)c1N1CCC(O)C1` (stereo partly shown) [Compound 469] are < 1 µM and < 1 µM.
Turning to `CN(c1ccccc1C1SC(CC(=O)N2CCC(N3CCc4ccccc4NC3=O)CC2)C(=O)N1CCC(C)(C)C)[C@H]1CCN(Cc2ccccc2)C1` (stereo partly shown) [Compound 403], at endogenous CGRP receptor, the IC50 was 1 to 5 µM. The inhibition constant Ki in assay [1] is < 1 µM.
On to `CN1CCN(c2ccccc2C2SC(CC(=O)N3CCC(c4cc5ccccc5[nH]c4=O)CC3)C(=O)N2CCC(C)(C)C)CC1` (stereo not shown) [Compound 303], for which the IC50 on endogenous CGRP receptor is < 1 µM. In addition, in assay [1], the Ki is < 1 µM.

The values are drawn from US8163737B2 (Vertex Pharmaceuticals Incorporated, priority 2006, dated 2012).
